Measurements: PubChem BioAssay (NCI)
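Dose response: 5 concentrations. Exposure: 48 h. Format: 96-well plates. Endpoint: linear interpolation; highest concentration if not reached. At the GI50, growth is halved. TGI is the concentration that stops growth completely.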

Key:
Assay in all cases: NCI-60 cell line screen, 48 h
HOP-92 NSCLC = system: HOP-92 NSCLC
CCRF-CEM leukemia = system: CCRF-CEM leukemia
MDA-MB-231 breast = system: MDA-MB-231 breast
SR leukemia = system: SR leukemia
DU-145 prostate = system: DU-145 prostate
SK-MEL-28 melanoma = system: SK-MEL-28 melanoma
MALME-3M melanoma = system: MALME-3M melanoma
HCC-2998 colon = system: HCC-2998 colon
K-562 leukemia = system: K-562 leukemia
IGROV1 ovarian = system: IGROV1 ovarian

Row | SMILES | GI50 (HOP-92 NSCLC) | TGI (HOP-92 NSCLC) | GI50 (CCRF-CEM leukemia) | TGI (CCRF-CEM leukemia) | GI50 (MDA-MB-231 breast) | TGI (MDA-MB-231 breast) | GI50 (SR leukemia) | GI50 (DU-145 prostate) | TGI (DU-145 prostate) | GI50 (SK-MEL-28 melanoma) | TGI (SK-MEL-28 melanoma) | GI50 (MALME-3M melanoma) | TGI (MALME-3M melanoma) | GI50 (HCC-2998 colon) | TGI (HCC-2998 colon) | GI50 (K-562 leukemia) | GI50 (IGROV1 ovarian) | TGI (IGROV1 ovarian) | TGI (SR leukemia) | TGI (K-562 leukemia)
1 | O=C1c2cccc3cc([N+](=O)[O-])cc(c23)C(=O)N1CCN1CCCC1 | 355 nM | 2790 nM | 343 nM | 7020 nM | 1560 nM | 11100 nM | 52.3 nM | 286 nM | 1240 nM | 1300 nM | 2900 nM | 180 nM | 1070 nM | 582 nM | 2740 nM | 534 nM | 276 nM | 5160 nM |  | 
2 | N#C/C(=C/C=C/c1ccccc1)S(=O)c1ccccc1 (stereo not drawn) | 319 nM | 1030 nM | 341 nM | 1590 nM | 371 nM | 1560 nM | 281 nM | 316 nM | 1200 nM | 565 nM | 1960 nM | 796 nM | 2500 nM | 342 nM | 1180 nM | 320 nM | 467 nM | 3000 nM | 4510 nM | 90800 nM
3 | CNC(=O)c1cncc(/C=C/c2c(C)cccc2C)c1 | 3340 nM | 22900 nM | > 25000 nM | > 25000 nM | 21100 nM | > 25000 nM | > 25000 nM | > 25000 nM | > 25000 nM | > 25000 nM | > 25000 nM | 16000 nM | > 25000 nM | > 25000 nM | > 25000 nM | > 22300 nM | 12900 nM | > 25000 nM | > 25000 nM | > 25000 nM
4 | N/C(=N\c1nc2ccccc2s1)NC(=O)Nc1ccccc1Cl | 356 nM | 56400 nM | 110 nM | > 42800 nM | 431 nM | 8210 nM | 41.1 nM | 259 nM | 9280 nM | 3590 nM | > 100000 nM | 667 nM | 13200 nM | 348 nM | 10900 nM | 36.6 nM | 134 nM | 21600 nM | > 32700 nM | > 43500 nM
5 | O=C1/C(=C/c2ccccc2)CN(CCC(=O)N2C/C(=C\c3ccccc3)C(=O)/C(=C/c3ccccc3)C2)C/C1=C\c1ccccc1 | 10400 nM | 29700 nM | 687 nM | > 100000 nM | 10700 nM | 56200 nM | 295 nM | 21100 nM | 73900 nM | 23400 nM | 74500 nM | 22300 nM | 64300 nM | 1710 nM | 8000 nM | 494 nM | 5190 nM | 21900 nM | > 100000 nM | > 100000 nM
